Measured values as given in publication PMC6232179 (Scientific Reports, 2018).
Read-outs that look alike come from different tables or passages of the source. Values belong to the compound of their own block, whether it stands above or below them.

Legend:
IRE1α [1] = assay: IRE1α XBP1 splicing luciferase reporter, HEK293 cells; type: cell-based, human; details: for COX-2-dependent stimulation of XBP1 mRNA splicing (IRE1α activity): HEK293, COX-2 siRNA vs scrambled, 24 hours, thapsigargin 0.5 µM, tunicamycin 5 µg/ml, DTT 1 mM, n = 16, Fig. 1D
Description: HEK293 cells (human embryonic kidney cells; https://web.expasy.org/cellosaurus/CVCL_0045) were maintained under standard tissue culture conditions, including 5% CO2 with high humidity. Tissue culture media included 10% fetal bovine serum in DMEM (Sigma). Cell transfection, analysis of cell viability and luciferase assays were carried out as described previously.
The pRL-IXFL XBP1 splicing reporter was a generous gift from Dr. R. Kaufman (Sanford Burnham Medical Discovery Institute) and contains an internal Renilla control and the nucleotide sequence encoding XBP1 followed by firefly luciferase separated by an internal ribosomal entry site (IRES) initiation region. This reporter will only generate firefly luciferase if the XBP1 sequence is spliced, bringing the firefly luciferase sequence to the correct reading frame.

IRE1α [2] = assay: Co-immunoprecipitation of endogenous COX-2 and IRE1α, HEK293 cells; type: binding, human; details: HEK293, triplicate, Fig. 5A
Description: For immunoprecipitation experiments, HEK293 (endogenous IRE1α) or COS-1 cells transfected with the pED-IRE1-NLD-His6-KDEL expression vector were harvested by washing with cold Tris-buffered saline followed by scraping into cold lysis buffer (25 mM Tris-Cl, pH 8.0, 150 mM NaCl, 0.5% Nonidet P-40, and 0.5% sodium deoxycholate). The lysate was incubated on ice for 30 min followed by centrifugation and 30 min incubation at 4 °C with 60 µl of 10% slurry of Protein A/G Sepharose beads (Qiagen) to preclear the lysate. The beads were centrifuged briefly to pellet and washed with five times of cold lysis buffer while the supernatant was transferred to a new Eppendorf tube. For immunoprecipitation of IRE1α, IRE1-NLD or COX-2, 2 µl of anti-IRE1α, anti-His-tag antibodies, COX-2 antibody or an IgG control were added to the supernatant and incubated with rotation overnight at 4 °C. To pull-down the antibody, 100 µl of 10% slurry of Protein A/G Sepharose beads was added and the lysate was incubated 4 hours with rotation at 4 °C. The beads were centrifuged briefly to pellet and washed five times with 1 ml cold lysis buffer. The beads were pelleted, re-suspended in 100 µl SDS-PAGE sample buffer, with 20 µl separated on SDS-PAGE (10% acrylamide), followed by Immunoblot analysis using anti-IRE1α, anti-COX-2, or anti-His-tag antibodies. Experiments were done in triplicate.

[3] = biological target: T1, IRE1-NLD (ER luminal domain of IRE1α) (Homo sapiens, UniProt O75460); assay: SPR, binding to immobilized IRE1-NLD; details: CM5 chip, 10 mM Hepes pH 7.4, 150 mM NaCl, 0.005% P20, 30 μl/min, triplicate, 10 µM COX-2, BiP, PDIA6 flowed
T1 construct: the ER luminal domain of IRE1α (IRE1-NLD); His6 (C); KDEL (ER retention signal) (C); made in house; host or cells: COS-1 cells
T1 sequence (O75460 19-443 limits assumed): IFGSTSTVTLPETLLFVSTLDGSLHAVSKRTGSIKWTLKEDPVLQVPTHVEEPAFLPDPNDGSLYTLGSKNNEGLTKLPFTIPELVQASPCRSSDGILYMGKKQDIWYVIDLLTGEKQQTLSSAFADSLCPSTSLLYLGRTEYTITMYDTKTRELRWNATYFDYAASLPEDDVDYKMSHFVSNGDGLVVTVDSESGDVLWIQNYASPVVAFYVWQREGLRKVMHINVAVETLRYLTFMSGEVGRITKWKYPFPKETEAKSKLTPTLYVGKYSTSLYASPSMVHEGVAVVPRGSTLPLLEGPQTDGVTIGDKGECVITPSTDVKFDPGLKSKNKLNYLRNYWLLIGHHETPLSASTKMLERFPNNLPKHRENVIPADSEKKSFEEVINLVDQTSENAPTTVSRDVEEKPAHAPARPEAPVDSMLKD
Description: Briefly, a CM5 chip was activated using a 1:1 dilution of EDC:NHS as previously described. Purified protein was diluted in 10 mM NaAc, pH 5 and injected over the activated CM5 chip followed by the blocking solution of 1 M ethanolamine, pH 9. A reference lane with no ligand coupled was generated to subtract background binding. The running buffer was composed of 10 mM Hepes, pH 7.2, 150 mM NaCl, 1 mM EDTA, 0.005% P20, and 2% ethanol. […] For each experiment, the signal was corrected against the control surface response to eliminate any refractive index changes due to buffer change. The data were collected at 25 °C at a flow rate of 30 µl/min to minimize mass transfer effects. Positive (cyclophilin) and negative controls (carbonic anhydrase) were included. Kinetic analysis was performed using the BiaEvaluation software (GE Life Sciences) with a 1:1 Langmuir binding model. Association and dissociation rates and affinity (KD) were calculated for each experiment and averaged. The binding response signals in RUs were continuously recorded and presented graphically as a function of time. For SPR analysis of COX-2 interaction with IRE1-NLD, the carboxymethylated dextran (CMD) surface of a CM5 chip was activated using a 1:1 dilution of EDC:NHS as previously described. Purified IRE1-NLD was captured at a flow rate of 5 μl/min to a total of ~1500 Response Units (RU). […]

IRE1-NLD = assay: MST, COX-2 titrated to RED-labeled IRE1-NLD; type: binding; details: red labelled IRE1-NLD, Suppl. Fig. S9
Description: (§1) MST was carried out using a Monolith NT.115 instrument (NanoTemper). To evaluate COX-2 binding to IRE1-NLD, an increasing concentration of purified COX-2 protein (0–10 µM) was incubated with RED-labeled purified IRE1-NLD protein (NanoTemper; as per manufacturer’s protocol). The reverse was also performed, with RED-labeled purified COX-2 incubated with an increasing concentration of purified IRE1-NLD. Positive (cyclophilin A) and negative controls (carbonic anhydrase) were included. […] Positive (cyclophilin A) and negative controls (carbonic anhydrase) were included. […] Experiments were done in triplicate and data evaluation was performed using the Monolith software (NanoTemper).

COX-2 = biological target: T2, COX-2 (Homo sapiens, UniProt P35354); type: binding
T2 construct: COX-2 cDNA was purchased from OriGene and cloned into pET-22b containing a 6His-tag; 6His; made in house; host or cells: LEMO21 E. coli
T2 sequence (P35354 18-604): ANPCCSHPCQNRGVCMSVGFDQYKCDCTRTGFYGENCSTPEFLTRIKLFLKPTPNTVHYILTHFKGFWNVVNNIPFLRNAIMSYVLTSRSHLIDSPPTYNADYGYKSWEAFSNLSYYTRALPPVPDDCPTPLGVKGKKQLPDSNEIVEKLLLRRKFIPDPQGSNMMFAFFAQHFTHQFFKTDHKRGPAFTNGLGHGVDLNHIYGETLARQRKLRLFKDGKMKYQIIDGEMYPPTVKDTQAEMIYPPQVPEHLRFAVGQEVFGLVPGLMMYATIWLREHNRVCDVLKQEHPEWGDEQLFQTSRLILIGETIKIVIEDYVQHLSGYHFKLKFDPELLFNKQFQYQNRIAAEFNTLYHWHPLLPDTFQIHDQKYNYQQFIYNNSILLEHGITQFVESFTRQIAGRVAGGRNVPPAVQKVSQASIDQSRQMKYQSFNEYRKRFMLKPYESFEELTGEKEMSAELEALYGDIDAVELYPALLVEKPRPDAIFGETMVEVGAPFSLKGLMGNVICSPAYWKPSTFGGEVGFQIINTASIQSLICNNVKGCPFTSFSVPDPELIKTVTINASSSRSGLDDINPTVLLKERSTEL
Description: as §1

COX-2 peroxidase = details: stated without reference; cited from earlier work
Excerpt: Next, we carried out XBP1 splicing reporter assays in the presence of inhibitors of COX-2 cyclooxygenase or peroxidase activity.

Compound: O[C@@H](CS)[C@@H](O)CS [DTT]
COX-2-dependent stimulation of XBP1 mRNA splicing (IRE1α activity) (IRE1α [1]): did not have any effect on COX-2-dependent stimulation of XBP1 mRNA splicing

Compound: Cc1ccc(-c2cc(C(F)(F)F)nn2-c2ccc(S(N)(=O)=O)cc2)cc1 [celecoxib]
XBP1 splicing reporter activity with COX-2 inhibitor (IRE1α [1]): had no effect on the XBP1 splicing activity in the absence or presence of COX-2 silencing

Compound: C/C=C(/C)C(=O)O[C@H]1C(C)=C2[C@H]([C@@H]1OC(=O)CCCCCCC)[C@@](C)(OC(C)=O)C[C@H](OC(=O)CCC)[C@@]1(O)[C@H]2OC(=O)[C@@]1(C)O [thapsigargin]
COX-2-dependent stimulation of XBP1 mRNA splicing (IRE1α activity) (IRE1α [1]): did not have any effect on COX-2-dependent stimulation of XBP1 mRNA splicing

Kd [3]: 880 nM
binding to IRE1-NLD (MST), wild-type and H374Y (IRE1-NLD): bound to IRE1-NLD
Compound: COX-2: purified COX-2 protein, 6His-tag, expressed in LEMO21 E. coli cells
co-immunoprecipitation with endogenous IRE1α (IRE1α [2]): co-immunoprecipitated with endogenous IRE1α

Compound: sodium ortho-vanadate
effect on cyclosporine binding to COX-2 (COX-2): not affected
COX-2 peroxidase inhibition (COX-2 peroxidase): an inhibitor of COX-2 peroxidase activity
XBP1 splicing reporter activity with COX-2 inhibitor (IRE1α [1]; 20 μM cyclosporine + inhibitor, in absence or presence of COX-2 silencing, Suppl. Fig. S5B): significant reduction of XBP1 splicing in the presence of COX-2, but not when COX-2 was silenced

Compound: tunicamycin
COX-2-dependent stimulation of XBP1 mRNA splicing (IRE1α activity) (IRE1α [1]): did not have any effect on COX-2-dependent stimulation of XBP1 mRNA splicing
